The term IC50 denotes the concentration that inhibits the measured activity by half.

The target of assay [1] is cGAS (Homo sapiens (Human), UniProt Q8N884). The assay is described as follows: Human cGAS enzyme assay (hcGAS IC50, in vitro), cGAMP formation by RapidFire MS.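 Note: enzyme activated by 45 bp dsDNA with GTP and ATP (30 µM each), 60 min compound pre-incubation then 90 min reaction, cGAMP relative to cyclic-di-GMP internal standard, 8-point dilutions up to 10 µM.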 The assay is classed as biochemical. Particulars: biochemical (in vitro) cGAS inhibition.
The subject of assay [2] is cellular cGAS activity in baculovirus-stimulated THP1-Dual cells (IRF dependent Lucia luciferase reporter). The assay can be described thus: Human cGAS cell assay: inhibition of IFN induction in virus-stimulated THP1 cells (THP1(vir) IC50). As to conditions: Homo sapiens, THP1-Dual; inhibition of IFN induction in virus-stimulated THP1 cells; read-out: THP1(vir) IC50. The assay is classed as cell-based. The text has this: (§1) 6.2 Method: Human cGAS Cell Assay and cGAMP Stimulated Counter Cell Assay (THP1(vir) IC50 and THP1(cGAMP) IC50)
(§2) THP1-Dual™ cells (InvivoGen #thpd-nfis) expressing IRF dependent Lucia luciferase reporter were used as basis for both assays. For the detection of cellular cGAS activity cells were stimulated by a baculovirus (pFastbac-1, Invitrogen, no coding insert) infection that delivers the cGAS enzyme stimulating double-stranded DNA (measurement of THP1(vir) IC50).
(§3) For the counter assay, cells were stimulated by cGAMP (SigmaAldrich #SML1232) to activate the identical pathway independent and directly downstream of cGAS (measurement of THP1(cGAMP) IC50). Pathway activity was monitored by measuring the Lucia luciferase activity induced by either DNA stimulated cGAS enzyme activity (measurement of THP1(vir) IC50) or by cGAMP directly (measurement of THP1(cGAMP) IC50, counter assay).
(§4) Compounds were delivered in 10 mM DMSO solution, serially diluted and transferred to the 384 well assay plate (Greiner #781201) using an Echo acoustic dispenser. Typically, 8 concentrations were used with the highest concentration at 10 μM in the final assay volume followed by ˜1:5 dilution steps. DMSO concentration was set to 1% in the final assay volume. The 384 well assay plate contained 21 test compounds (column 1-22), and DMSO in column 23 and 24.
(§5) Cells, cultivated according to manufacturer conditions, were harvested by centrifugation at 300 g/10 min and were then resuspended and diluted to 1.66E5 cells/ml in fresh cell culture medium (RPMI 1640 (Gibco #A10491-01), 10% FCS (Gibco #10500), 1× GlutaMax (Gibco #35050-061), 1× Pen/Strep solution (Gibco #15140-122), 100 μg/ml Normocin (InvivoGen #ant-nr), 100 μg/ml Zeocin (InvivoGen #ant-zn), 10 μg/ml Blasticidin S (Life Technologies #A11139-03)). The baculovirus solution was then added 1:200 (have varied according to virus batch) to the cells (measurement of THP1(vir) IC50).
(§6) 30 μL of the cell/virus-mix were added to each well of the compound plate from column 1-23 via MultiDrop Combi dispenser (5000 cells/well). In column 24, 30 μl/5000 cells/well without virus were added as a low control.
(§7) The plates were then incubated for 18 h at 37° C. in a humidified incubator.
(§8) Following that, 15 μl of QuantiLuc detection reagent (InvivoGen #rep-qlcg5) were added to each well using a MultiDrop Combi. Measurement was done immediately after the addition using an EnVision reader (US-luminescence read-mode).
(§9) For data evaluation and calculation, the measurement of the low control was set as 0% control and the measurement of the high control was set as 100% control. The IC50 values were calculated using the standard 4 parameter logistic regression formula. Calculation: [y=(a−d)/(1+(x/c)^b)+d], a=low value, d=high value; x=conc M; c=IC50 M; b=slope

For assay [3], the system named is cGAMP-stimulated THP1-Dual cells (pathway directly downstream of cGAS). The assay is described as follows: cGAMP stimulated counter cell assay: inhibition of IFN induction in cGAMP-stimulated THP1 cells (THP1(cGAMP) IC50). The format is cell-based, human. Particulars: for IC50: Homo sapiens, THP1-Dual, inhibition of IFN induction in cGAMP-stimulated THP1 cells, read-out: THP1(cGAMP) IC50 (converted); for Ratio THP1(cGAMP) IC50 / THP1(vir) IC50: selectivity for cGAS inhibition.
Source text: as §1, §2, §3, §4, §5, §6, §7, §8, §9

For assay [4], the system named is cellular cGAS activity in dsDNA-stimulated human whole blood. The assay is described as follows: Human whole blood assay (hWB IC50): IFNα2α production after dsDNA transfection. The format is cell-based. Particulars: inhibition of IFN induction in dsDNA-stimulated human whole blood. How it is done: 6.3 Method: Human Whole Blood Assay (Human WB IC50)
For the detection of cellular cGAS activity human whole blood was stimulated by transfection with double stranded DNA. Pathway activity was monitored by measuring the IFNα2α production.
Compounds were delivered as 10 mM DMSO solution and serially diluted and transferred to the 96-well cell culture plate (Corning #3595), prefilled with 20 μl OptiMEM (Gibco, #11058-021) in each well, using an Echo acoustic dispenser. Typically, 8 concentrations were used with the highest concentration at 10 µM in the final assay volume followed by ˜1:5 dilution steps. DMSO concentration was set to 0.1% in the final assay volume. The 96-well assay plate contained 10 test compounds, and DMSO in control wells.
Collection of human whole blood from 3 or more healthy donors (male or female, no medication for 7 days except contraceptive and thyroxine) as Na-Citrate blood (e.g. 3.8% in Monovettes from Sarstedt) was conducted in parallel. Whole blood was kept at room temperature for a maximum of 3 hours after collection until use in the assay.
160 μl of the whole blood samples was transferred to each well of the 96-well assay plates filled with compound/OptiMEM. All assay plates were prepared as duplicates with blood from different donors. Blood plates were kept at room temperature for 60 minutes and continuous shaking with 450 rpm, covered with the lid, but not sealed.
20 μl OptiMEM and 9.6:1 Fugene was added to all low control wells.
After covering assay plates with aera seals and the lid, blood plates were kept at room temperature for 30 minutes and continuous shaking with 450 rpm, followed by an overnight incubation of 22 h at 37° C. in the incubator, without shaking.
For the detection of IFNα-2α in human plasma, the biotinylated capture antibody (Antibody set IFNA2, Meso Scale Diagnostics #B21VH-3, including coating and capture antibody) was diluted 1:17.5 in Diluent 100 (Meso Scale Diagnostics #R^50AA-4), according to the manufacturer's directions. U-Plex MSD GOLD 96-well Small Spot Strepavidin SECTOR Plates (Meso Scale Diagnostics #L45SA-5) were coated with 25 μl diluted capture antibody. Coated plates were incubated for 60 min at room temperature under continuous shaking at 700 rpm. MSD IFNα-2α plates were washed three times with 150 μl wash buffer (1x HBSS, 0.05% Tween).
After blocking the plates with 100 μl block solution/well (1x HBSS with 0.2% Tween, 2% BSA) for 60 min at room temperature and continuous shaking at 700 rpm, plates were emptied as dry as possible by dumping just before continuing with the human plasma.
Whole Blood assay plates were centrifuged at 1600 rpm for 10 minutes. 25 μl of supernatant was transferred with a pipetting robot from each whole blood plate to the corresponding IFNα-2α plate. Plates were sealed with microplate seals and kept at room temperature again under continuous shaking at 700 rpm for two hours.
Next MSD IFNα-2α plates were washed three times with 150 μl wash buffer (1×HBSS, 0.05% Tween), before adding 25 μl MSD SULFO-TAG IFNα-2α Antibody solution (1:100 diluted in Diluent 3 (Meso Scale Diagnostics #R50AP-2) to each well of the plates.
Afterwards plates were sealed with microplate seals and kept at room temperature again under continuous shaking at 700 rpm for two hours. Finally, MSD IFNα-2α plates were washed three times with 150 μl wash buffer (1×HBSS, 0.05% Tween). 150 μl 2× Read buffer was added to each well and plates were immediately measured with the MSD Sector S600 Reader using the vendor barcode.
For data evaluation and calculation, % control calculation of each well was based on the mean of high (DNA stimulated control) and mean of low (unstimulated control) controls by using the following formula:
[counts(sample)−counts(low))/(counts(high)−counts(low))]*100
The IC50 values were calculated using the standard 4 parameter logistic regression formula. Calculation: [y=(a−d)/(1+(x/c)^b)+d], a=low value, d=high value; x=conc M; c=IC50 M; b=slope

Sequence of cGAS (Q8N884 whole entry): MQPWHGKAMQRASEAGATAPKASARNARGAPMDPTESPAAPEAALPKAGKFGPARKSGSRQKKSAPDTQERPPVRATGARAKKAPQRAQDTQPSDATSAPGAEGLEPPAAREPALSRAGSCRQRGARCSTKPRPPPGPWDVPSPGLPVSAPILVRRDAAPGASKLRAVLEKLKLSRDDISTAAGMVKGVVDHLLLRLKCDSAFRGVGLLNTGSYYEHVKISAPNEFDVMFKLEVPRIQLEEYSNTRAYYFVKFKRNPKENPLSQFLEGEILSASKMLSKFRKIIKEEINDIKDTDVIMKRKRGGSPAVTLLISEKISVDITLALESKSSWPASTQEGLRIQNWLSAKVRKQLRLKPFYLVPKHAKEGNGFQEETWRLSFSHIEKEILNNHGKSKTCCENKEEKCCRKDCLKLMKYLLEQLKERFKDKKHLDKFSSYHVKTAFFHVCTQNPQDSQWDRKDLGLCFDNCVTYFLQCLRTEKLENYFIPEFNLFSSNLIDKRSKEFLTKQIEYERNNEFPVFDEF

Take `C#Cc1cnc(O[C@H]2C[C@@H](C(=O)O)N(c3nc(C(F)F)nc4c3oc3ccccc34)C2)c(N2CCCC[C@@H]2C)c1` [Example 1.19]: the IC50 was 4 nM in assay [1], 699 nM in assay [2], over 16600 nM in assay [3] and 667 nM in assay [4]. The “Ratio THP1(cGAMP) IC50 / THP1(vir) IC50” value in assay [3] is over 24.

As to `C#Cc1cnc(O[C@H]2C[C@@H](C(=O)O)N(c3nc(C(F)F)nc4c3oc3ccccc34)C2)c(N2CCC3(C[C@@H]2C)N=N3)c1` [Example 1.20], the concentration for half-maximal inhibition (IC50) in assay [1] was 2 nM; in assay [2] it was 796 nM; in assay [3], over 16600 nM; in assay [4], 670 nM. For the same molecule, the “Ratio THP1(cGAMP) IC50 / THP1(vir) IC50” value in assay [3] was over 21.

On to `C[C@@H]1N(c2cc(Cl)cnc2O[C@H]2C[C@@H](C(=O)O)N(c3nc(C(F)F)nc4c3oc3ccccc34)C2)CCCC12COC2` [Example 1.21], for which the half-inhibitory concentration (IC50) in assay [1] was 4 nM; in assay [2] it was 85 nM; in assay [3] it was 14800 nM; in assay [4], 46 nM. For the same molecule, the “Ratio THP1(cGAMP) IC50 / THP1(vir) IC50” value in assay [3] was determined as 175.

In the case of `C#Cc1cnc(O[C@H]2C[C@@H](C(=O)O)N(c3nc(C(F)(F)F)nc4c3oc3ccccc34)C2)c(N2CCCC3(COC3)[C@@H]2C)c1` [Example 1.22], the IC50 in assay [1] was 5 nM; in assay [2], 21 nM; in assay [3], 7640 nM; in assay [4] it was 29 nM. Moreover, in assay [3], the “Ratio THP1(cGAMP) IC50 / THP1(vir) IC50” value worked out at 355.

For the molecule `C#Cc1cnc(O[C@H]2C[C@@H](C(=O)O)N(c3nc(C(F)F)nc4c3oc3ccccc34)C2)c(N2CCCC3(COC3)[C@@H]2C)c1` [Example 1.23], the IC50 in assay [1] is 4 nM; in assay [2], 10 nM; in assay [3], 10900 nM; in assay [4] it was 12 nM. The “Ratio THP1(cGAMP) IC50 / THP1(vir) IC50” value in assay [3] came out at 1134.

On to `C[C@H]1COC[C@H](C)N1c1cc(Br)cnc1O[C@H]1C[C@@H](C(=O)O)N(c2nc(C(F)F)nc3c2oc2ccccc23)C1` [Example 1.26], for which the concentration for half-maximal inhibition (IC50) in assay [1] was 10 nM; in assay [2], 583 nM; in assay [3], 9930 nM; in assay [4] it was 475 nM. The “Ratio THP1(cGAMP) IC50 / THP1(vir) IC50” value in assay [3] is 17.

As for `C[C@H]1COCCN1c1cc(Cl)cnc1O[C@H]1C[C@@H](C(=O)O)N(c2nc(C(F)F)nc3c2oc2ccccc23)C1` [Example 1.27], the half-maximal inhibitory concentration (IC50) in assay [1] is 4 nM; in assay [2] it was 516 nM; in assay [3], over 16600 nM; in assay [4], 221 nM. Further, in assay [3], the “Ratio THP1(cGAMP) IC50 / THP1(vir) IC50” value is on record as over 32.

For the molecule `C[C@H]1COCCN1c1cc(Br)cnc1O[C@H]1C[C@@H](C(=O)O)N(c2nc(C(F)F)nc3c2oc2ccccc23)C1` [Example 1.28], the half-maximal inhibitory concentration (IC50) in assay [1] was 3 nM; in assay [2], 500 nM; in assay [3], over 16600 nM; in assay [4], 629 nM. Also, the “Ratio THP1(cGAMP) IC50 / THP1(vir) IC50” value in assay [3] was over 33.

Turning to `C#Cc1cnc(O[C@H]2C[C@@H](C(=O)O)N(c3nc(C)nc4c3oc3ccccc34)C2)c(N2CCOC[C@@H]2C)c1` [Example 1.29], the IC50 in assay [1] was 4 nM; in assay [2], 296 nM; in assay [3], over 16600 nM; in assay [4], 61 nM. For the same molecule, the “Ratio THP1(cGAMP) IC50 / THP1(vir) IC50” value in assay [3] was over 56.

On to `C#Cc1cnc(O[C@H]2C[C@@H](C(=O)O)N(c3nc(C(F)(F)F)nc4c3oc3ccccc34)C2)c(N2CCOC[C@@H]2C)c1` [Example 1.30], for which the concentration for half-maximal inhibition (IC50) in assay [1] was 3 nM; in assay [2], 159 nM; in assay [3], 22100 nM; in assay [4], 80 nM. In addition, the “Ratio THP1(cGAMP) IC50 / THP1(vir) IC50” value in assay [3] came out at 139.

As for `C#Cc1cnc(O[C@H]2C[C@@H](C(=O)O)N(c3nc(C(F)F)nc4c3oc3ccccc34)C2)c(N2CCOC[C@@H]2C)c1` [Example 1.31], the IC50 in assay [1] was 3 nM; in assay [2] it was 232 nM; in assay [3], over 16600 nM; in assay [4], 102 nM. Besides, the “Ratio THP1(cGAMP) IC50 / THP1(vir) IC50” value in assay [3] is over 72.

As to `C[C@@H]1N(c2cc(Br)cnc2O[C@H]2C[C@@H](C(=O)O)N(c3nc(C(F)(F)F)nc4c3oc3ccccc34)C2)CCOC12CC2` [Example 1.33], the IC50 was 3 nM in assay [1], 15 nM in assay [2], over 10000 nM in assay [3] and 252 nM in assay [4]. In addition, the “Ratio THP1(cGAMP) IC50 / THP1(vir) IC50” value in assay [3] was 677.

Take `C[C@@H]1N(c2cc(F)cnc2O[C@H]2C[C@@H](C(=O)O)N(c3nc(C(F)(F)F)nc4c3oc3ccccc34)C2)CCOC12COC2` [Example 1.34]: the IC50 in assay [1] is 3 nM; in assay [2], 19 nM; in assay [3], over 10000 nM; in assay [4], 51 nM. The “Ratio THP1(cGAMP) IC50 / THP1(vir) IC50” value in assay [3] came to 514.

(Values after patent US20240342186A1, “PYRIDINE DERIVATIVES WITH N-LINKED CYCLIC SUBSTITUENTS AS cGAS INHIBITORS” (Boehringer Ingelheim International GmbH, priority 2021, published 2024).)
